Data set [1] concerns Gli1 transcriptional activity. Briefly: Gli responsive luciferase reporter in NIH3T3-E1 cells over expressing Gli1. The data set is classed as cell-based, mouse. As to conditions: 10 μM, 72 hrs. As to the method: NIH3T3-E1 cells cultured in 24 well-plates at 90% confluence were transiently transfected with 0.1 μg of Smad response-element reporter (SBE-Luciferase) plasmid (Qiagen), or with 0.1 μg of Gli response-element reporter (pGL3b-8xGli-Luciferase) plasmid, and 10 ng of pSV40-Renilla-Luciferase plasmid (Promega, Madison, WI, USA) with or without co-transfection with 10ng of Gli1 overexpression vector, pSRα-Gli1 using a Lipofectamine LTX Plus transfection reagent, as previously described. Sufu-/- cells cultured in 24 well-plates at 90% confluence were transiently transfected with 0.1μg of pGL3b-8xGli-Luciferase plasmid, and 10 ng of pSV40-Renilla-Luciferase plasmid. 6 hrs after transfection, cells were treated with test agents for 72 h. […] Then the firefly and Renilla luciferase activities were measured using a dual luciferase kit (Promega) and a GloMax-96 Microplate Luminometer (Promega) or a plate reader-SpectraMax iD3 (Molecular Devices, San Jose, CA, USA). […]
Figure 5 Oxy210 acts downstream of Smo. […] After 72 h, RNA was extracted and analyzed by Q-RT-PCR for the expression of Hh target genes Gli1 and Hip, normalized to Oaz1 expression. […] Luciferase activity was measured and normalized to the Renilla luciferase activity. […]

A further data set concerns A549 cells. Briefly: Matrigel invasion assay. The data set is classed as cell-based, human. The settings on record: Matrigel chambers, 24 h. As to the method: Invasion assays were performed using 24-well Matrigel invasion chambers (Corning, Corning, NY, USA), with the protocol provided by the manufacturer. A549 cells in 6-well plate starved in RPMI 1640 containing 0.1% FBS for 24 h were pre-treated with Oxy210 or DMSO for 2 h. 2 × 10^4 cells were seeded in each of the upper chambers containing RPMI 1640 supplemented with 0.1% FBS and the test agents. Each of the lower chambers contained RPMI 1640 supplemented with 5% FBS and the corresponding test agents. The cells were cultured for 24 h before assessment of cell invasion. Non-invaded cells in the upper surface of the membrane were removed using a cotton swab and the invaded cells in the lower surface were fixed and stained with 100% methanol and 0.4% trypan blue, respectively. The invaded cells were imaged and counted under the microscope at 40X total magnification.
Figure 9 Inhibition of TGFβ-induced invasive activity of A549 cells. In vitro invasion assays were performed using chambers with matrigel-coated membrane as described in the Materials and Methods section. (a) Images of invaded cells on the membranes. (b) Quantitative analysis of invasion of A549 cells induced by TGFβ in the absence or presence of Oxy210. Data from a representative experiment are reported as the mean of triplicate determinations ± SD (** p < 0.01 vs. TGFβ treated cells; ## p < 0.01 vs. control).

Data set [2] can be described thus: Single oral dose pharmacokinetic study in mice. The data set is classed as in vivo. The settings on record: mouse, plasma, oral gavage, single dose 50 mg/kg. As to the method: (§1) In an initial assessment of drug-like properties of Oxy210, we performed a pharmacokinetic (PK) study in mice. Oxy210, formulated in 3% DMSO + 7% Ethanol + 5% PEG400 + 85% corn oil, was administered to balb/c mice by oral gavage as a single dose of 50 mg/kg. Plasma samples were taken at 10 min, 30 min, 1 h, 2 h, 4 h, and 8h, followed by LC/MS analysis. […] Additional PK studies in mice were performed with Oxy210 in a dose escalation study with repeated once daily oral dosing (50 mg/kg, 200 mg/kg and 400 mg/kg) for 7 days.
Figure 13 Drug-like properties of Oxy210. (a) A single dose of Oxy210 at 50 mg/kg, formulated in 3% DMSO + 7% Ethanol + 5% PEG400 + 85% corn oil, was administered to balb/c mice by oral gavage. Plasma samples were taken at 10 min, 30 min, 1h, 2h, 4h, 6h, and 8h, followed by LC/MS analysis of the plasma. (b) Evolution of Oxy210 and Oxy186 from parent compound Oxy16 and their drug-like properties.

The next data set has as its system Liver X Receptor (LXR). The data set is classed as cell-based, human.
Data set [3] can be described thus: Dose escalation study with repeated once daily oral dosing for 7 days in mice. The settings on record: once daily oral 50, 200 and 400 mg/kg for 7 days. The data set is classed as in vivo. As to the method:
as §1

The source of these data is PMC6829886, “Inhibition of Non-Small Cell Lung Cancer Cells by Oxy210, an Oxysterol-Derivative that Antagonizes TGFβ and Hedgehog Signaling” (Cells, 2019).

Several values for one entry are separate records, joined by “and”; a condition that tells them apart may be missing. Equal entries are not always repeated.

As to `C[C@]12CC[C@H]3[C@@H](CC=C4C[C@@H](O)CC[C@@]43C)[C@@H]1CC[C@@H]2[C@](C)(O)CCc1cccnc1` [Oxy210, (3S,8S,9S,10R,13S,14S,17S)-17-((R)-2-hydroxy-4-(pyridin-3-yl)butan-2-yl)-10,13-dimethyl-2,3,4,7,8,9,10,11,12,13,14,15,16,17-tetradecahydro-1H-cyclopenta[a]phenanthren-3-ol], the “transcriptional activity of Gli responsive luciferase reporter trans-activated by exogenous Gli1” value in data set [1] is recorded as “significantly inhibited”. In the data set on A549 cells, the TGFβ-induced invasive activity result was “inhibited this invasive activity in a dose dependent manner”. The MRT in data set [2] (balb/c, po, 50 mg/kg, read-out: mean residence time (MRT)) worked out at 8 h. Also, in data set [2] (balb/c mice), the AUC(0-inf) came to 9210 ng·h/mL; the Tmax is 0.5 h; the maximum concentration (Cmax) was 1970 ng/mL and 4.7 µM. In addition, in the data set on Liver X Receptor (LXR), the “induced expression of SREB1c” value was “lack of induced expression”. Further, in data set [3], the PK linearity entry is “linear PK parameters and exposure”; the tolerability entry was “well tolerated and apparently safe”.
